# Measured values: paper PMC4725915, “Ruthenium(II) Complexes with 2-Phenylimidazo[4,5-f][1,10]phenanthroline Derivatives that Strongly Combat Cisplatin-Resistant Tumor Cells” (Scientific Reports, 2016)
# What was measured:
# LO2 = experiment: MTT cytotoxicity assay, normal LO2 cells; assay type: cell-based; conditions: LO2 normal human cell line, 48 h
# Protocol: Compounds 1–4 were evaluated against three tumor cell lines derived from different tissues, including the cervix (HeLa), lung (A549) and cisplatin-resistant lung (A549R) tissues. For comparison, the cytotoxicity of cisplatin was also evaluated. As a control, the toxicities of the complexes were also tested against the normal human cell line (LO2).
# The human cervix carcinoma cell line (HeLa), the lung carcinoma cell lines (A549 and A549R), and the human hepatocyte cell line (LO2) were obtained from the Experimental Animal Center at Sun Yat-Sen University (Guangzhou, China). The cells were maintained in Dulbecco’s modified Eagle’s medium (DMEM, Gibco BRL) or Roswell Park Memorial Institute 1640 (RPMI 1640, Gibco BRL) medium supplemented with 10% fetal bovine serum (FBS, Gibco BRL), 100 μg/mL streptomycin, and 100 U/mL penicillin (Gibco BRL) in a humidified incubator under 5% CO2 and 20% O2 at 37 °C. To maintain the resistant phenotype, A549R cells were incubated with 5 μM cisplatin and cultured in drug-free medium for at least a week before use.
# The cytotoxicity of the ruthenium complexes and cisplatin were determined by an MTT assay. Briefly, cells were seeded into 96-well microtiter plates at 1 × 10^4 cells per well and grown overnight at 37 °C in a 5% CO2 incubator; then, different concentrations of the complexes in cell culture medium were added to the cultures. The plates were then incubated in an incubator for 48 h under the same conditions. The stock MTT dye solution (15 μL, 5 mg/mL) was added to each well. After 4 h of incubation, the cultures were removed and 150 μL of DMSO was added to each well. The optical density of each well was measured on a microplate spectrophotometer at a wavelength of 595 nm.
# A549R cells [1] = experiment: Cell uptake study by ICP-MS; assay type: cell-based, human; conditions: A549R, 2.0 μM, 12 h
# Protocol: To understand the high sensitivity of cancer cells to Ru(II) complexes, the extent of cellular uptake was investigated with inductively coupled plasma mass spectrometry (ICP-MS) by treating the HeLa, A549, A549R and LO2 cell lines with 2.0 μM concentrations of the Ru(II) complexes and cisplatin for 12 h. […] In this study, the cellular uptake and lipophilicity were distinctly correlated and followed the order: 4 >3 >2 >1. Complex 4 had the best accumulation, but the amount of Ru in LO2 cells was far less than that in the three cancer lines, indicating selective accumulation and improved efficiency for treating cancer. Cisplatin was taken up more efficiently by the sensitive cell line (A549) than by the cisplatin-resistant cell line (A549R). […] However, less than 1.5% of the cellular platinum was accumulated in the mitochondrial fraction of the A549R cells. Therefore, complex 4 could function in a different manner than cisplatin in A549R cells, which would be an appropriate solution to combat cisplatin resistance in tumor cells.
# The cells were plated at a density of 1 × 10^5 cells/mL in 10 mL of DMEM for 24 h at 37 °C under 5% CO2 and 20% O2, Ruthenium complexes (2.0 μM) and cisplatin were added to the culture medium and incubated for 12 h, and mixed with cold PBS and a trypsin-EDTA solution in a centrifuge tube for counting. Then, the nuclei and cytoplasm of the cells were extracted by using a Nuclear and Cytoplasmic Protein Extraction Kit (Life Technologies). The samples were digested in 20% HNO3 and 10% H2O2 at room temperature overnight. Each sample was then diluted with Milli-Q water to obtain 2% HNO3 sample solutions. Ruthenium contents were determined using inductively coupled plasma mass spectrometry (ICP-MS Thermo Elemental Co., Ltd.).
# [2] = Distribution coefficient (log Po/w), flask-shaking, n-octanol/phosphate buffer; assay type: physicochemical; conditions: n-octanol / phosphate buffer pH 7.4, 37 °C; in words only (Figure S8)
# Protocol: Distribution coefficients (log Po/w) were determined by liquid-liquid extraction between n-octanol (oil) and phosphate buffers (0.2 M, pH 7.4) with the flask-shaking method. N-Octanol and the buffer were mutually saturated with each other for at least 24 h before use. An aliquot of a ruthenium complex stock solution was added to the phosphate buffer concentrations at <10 mg/mL, and the mixture was shaken at 100 rpm for 24 h at 37 °C to allow for adequate partitioning. After the sample was centrifuged at 3000 rpm for 20 min, the aqueous layer was used for ruthenium analysis, and the Ru content in the aqueous layer was measured by ICP-MS and used to calculate the log Po/w.
# A549R cells [3] = experiment: Cell cycle analysis (PI, FACS); assay type: cell-based, human; conditions: 24 h
# Protocol: Cell proliferation is activated under pathological conditions and plays a crucial role in cancer cell regeneration. Deregulated cell-cycle control is a fundamental aspect of cancer and the process is related to the proliferation and death of cancer cells. Therefore, the effect of cyclometalated complex 4 on cell cycles was investigated using fluorescence-activated cell sorting (FACS) analysis of the DNA content. […] A higher dose of complex 4 (2.0 μM) elicited a strong G2/M arrest of A549R cells, accounting for 46% of the cell population (control, 12.82%). The enrichment of the G2/M phase of the cell cycle of A549R cells may have led to their apoptosis by disrupting the cell cycle.
# A549R cells were treated with different concentrations of complex 4 (i.e., 0.5, 1.0 and 2.0 μM) for 24 h. The cells were collected and fixed in 2 mL of 70% cold aqueous ethanol (v/v). After incubation, the cells were centrifuged and washed three times with cold PBS and resuspended in 0.5 mL of PBS. To a 0.5 mL cell sample, […] of RNase A (1 mg/mL in PBS) was added and incubated for 30 min at 37 °C; then, […] of a PI ([…] in PBS) solution was added after gentle mixing for 5 min at 37 °C in the dark. The samples were resuspended and 10,000 cells were analyzed for each sample by a BD FACS Calibur cytometer (Becton Dickinson, Heidelberg, Germany). The data were acquired and analyzed with ModFit LT 3.2.
substance,measurement,setting,value
Ru(phen)(bzq)(tbtfpip)(PF6) [Complex 4],IC50,LO2,6.7 ± 2.4 µM
same,share of the compound taken up by A549R cells,A549R cells [1],Approximately 8%
same,log Po/w,[2],largest
same,G2/M share of the cell population,"A549R cells [3]; 2.0 μM, control 12.82%",46%
same,percentage of cells in the G0/G1 phase,A549R cells [3]; control 68.46,30.87%
